The source made the active and inactive calls. No cut-off for these calls is given here.
Key:
[1] = tested on: SW480; experiment: Induction of apoptosis in human SW480 cells assessed as early apoptotic cells at 2 uM incubated for 48 hrs by Annexin V-FITC/PI staining based flow cytometry (reference value: 1.87%); format: functional
[2] = tested on: SW480; experiment: Induction of apoptosis in human SW480 cells assessed as viable cells at 16 uM incubated for 48 hrs by Annexin V-FITC/PI staining based flow cytometry (reference value: 90.56%); format: functional; details: read-out: Activity
[3] = tested on: SW480; experiment: Induction of apoptosis in human SW480 cells assessed as late apoptotic cells at 4 uM incubated for 48 hrs by Annexin V-FITC/PI staining based flow cytometry (reference value: 4.67%); format: functional
[4] = tested on: SW480; experiment: Antitumor activity against human SW480 cells xenografted in BALB/c mouse assessed as reduction in tumor necrosis at 25 to 50 mg/kg, ip administered every 2 days for 12 days by hematoxyin-eosin staining based analysis; format: functional, organism-based; details: dose 25-50 mg/kg, time 12.0 day
[5] = tested on: SW480; experiment: Induction of mitochondrial membrane potential loss in human SW480 cells assessed as increase in cells with low MMP emitting green fluorescence at 2 to 8 uM incubated for 24 hrs by JC-1 staining based fluorescence microscopy; format: functional, cell-based; details: dose 2-8 µM
[6] = tested on: SW480; experiment: Induction of apoptosis in human SW480 cells assessed as necrotic cells at 16 uM incubated for 48 hrs by Annexin V-FITC/PI staining based flow cytometry (reference value: 2.9%); format: functional
[7] = tested on: SW480; experiment: Induction of mitochondrial membrane potential loss in human SW480 cells assessed as cells with high MMP emitting red fluorescence at 2 uM incubated for 24 hrs by JC-1 staining based flow cytometry (reference value: 64.2%); format: functional
[8] = tested on: SW480; experiment: Induction of apoptosis in human SW480 cells assessed as late apoptotic cells at 8 uM incubated for 48 hrs by Annexin V-FITC/PI staining based flow cytometry (reference value: 4.67%); format: functional
[9] = tested on: SW480; experiment: Induction of apoptosis in human SW480 cells assessed as increase in p53 protein expression at 2 to 16 uM incubated for 48 hrs by western blot analysis; format: functional, cell-based; details: dose 2-16 µM
[10] = tested on: SW480; experiment: Induction of apoptosis in human SW480 cells assessed as necrotic cells at 2 uM incubated for 48 hrs by Annexin V-FITC/PI staining based flow cytometry (reference value: 2.9%); format: functional
[11] = tested on: HCT-116; experiment: Inhibition of colony formation in human HCT-116 cells at >=16 uM incubated for 48 hrs followed by culture medium replenishment for every 72 hrs and measured after 14 days by crystal violet staining based analysis; format: functional; details: dose microM >=16; time 14 day
[12] = tested on: SW480; experiment: Induction of mitochondrial membrane potential loss in human SW480 cells assessed as cells with high MMP emitting red fluorescence at 4 uM incubated for 24 hrs by JC-1 staining based flow cytometry (reference value: 64.2%); format: functional
[13] = tested on: SW480; experiment: Induction of apoptosis in human SW480 cells assessed as reduction in Bcl-xl protein expression at 2 to 16 uM incubated for 48 hrs by western blot analysis; format: functional, cell-based; details: dose 2-16 µM
[14] = tested on: HCT-116; experiment: Antiproliferative activity against human HCT-116 cells assessed as reduction in cell viability incubated for 48 hrs by MTT assay; format: functional, cell-based; details: HCT-116, 48 h
[15] = tested on: SW480; experiment: Induction of apoptosis in human SW480 cells assessed as early apoptotic cells at 32 uM incubated for 48 hrs by Annexin V-FITC/PI staining based flow cytometry (reference value: 1.87%); format: functional
[16] = tested on: SW480; experiment: Induction of apoptosis in human SW480 cells assessed as late apoptotic cells at 2 uM incubated for 48 hrs by Annexin V-FITC/PI staining based flow cytometry (reference value: 4.67%); format: functional
[17] = tested on: SW480; experiment: Induction of apoptosis in human SW480 cells assessed as viable cells at 32 uM incubated for 48 hrs by Annexin V-FITC/PI staining based flow cytometry (reference value: 90.56%); format: functional; details: read-out: Activity
[18] = Acute toxicity in BALB/c mouse assessed as animal survival at 100 mg/kg, ip administered per 4 hrs for 4 times and measured everyday for 14 days (Rb =100%); format: organism-based; details: in vivo, time 14 day
[19] = Half life in human liver microsomes at 0.1 uM preincubated for 10 mins followed by NADPH addition and measured up to 60 mins by LC-MS/MS analysis; format: ADME, Microsome; details: time 70 min
[20] = Acute toxicity in BALB/c mouse assessed as animal survival at 200 mg/kg, ip administered per 4 hrs for 4 times and measured everyday for 14 days (Rb =100%); format: organism-based; details: in vivo, time 14 day

In the case of `CCCCCCCCCC(CCO)n1cnc2c(Cl)ncnc21` (racemic), the Activity [1] is reported as 5.2%, the viability at 16 µM [2] is reported as 44% and the Activity [3] is reported as 9.11%. For the same molecule, the Activity [4] was “Active”, the Activity [5] was “Active” and the Activity [6] was 11.01%. The Activity [7] was 47.58%, the Activity [8] was 15.47% and the Activity [9] was “Active”. The Activity [10] was 9.2%, the “inhibition (INH)” value [11] was 100% and the Activity [12] was 33.67%. The Activity [13] was “Active”, the IC50 [14] was 0.89 µM and the Activity [15] was 55.55%. It also gave an Activity [16] of 11.69%, a viability at 32 µM [17] of 26.8% and a survival at 336 h [18] of 100%. For the same molecule, the half-life at 0.1 µM [19] was 10.8 min and the survival at 336 h [20] was 70%.

Reference: ChEMBL document CHEMBL4811228, “Design, Synthesis, and Activity Evaluation of Novel Acyclic Nucleosides as Potential Anticancer Agents In Vitro and In Vivo” (J Med Chem, 2021)
